This note sets out measurements from BindingDB's records for doi:10.1021/acs.jmedchem.8b00705 (Zhejiang University, 2018).

A short description of this assay: Inhibition of alpha-crystallin B R120G mutant (unknown origin)-induced intracellular protein aggregation expressed in human HeLa cells or HLE-B3 cells incubated for 6 to 8 hrs by fluorescence microscopy relative to untreated control.
As for `C[C@H](CCCC(C)(C)O)[C@H]1CC[C@@]2(C)C3=C(CC[C@]12C)[C@@]1(C)C[C@@H](F)[C@H](O)C(C)(C)[C@@H]1CC3`, it took 18 nM to reach a half-maximal effect (EC50).
For `CC(C)=CCC[C@@H](C)[C@H]1CC[C@@]2(C)C3=C(CC[C@]12C)[C@@]1(C)CC[C@H](O)C(C)(C)[C@@H]1CC3` [LANOSTEROL], the EC50 (in general, the concentration giving half of the maximal effect) was determined as 1420 nM.
Next, `C[C@H](CCCC(C)(C)O)[C@H]1CC[C@@]2(C)C3=C(CC[C@]12C)[C@@]1(C)C[C@@H](F)[C@@H](O)C(C)(C)[C@@H]1CC3`: 26 nM; `C[C@H](CCCC(C)(C)O)[C@H]1CC[C@H]2[C@@H]3CC=C4C[C@@H](O)CC[C@]4(C)[C@H]3CC[C@]12C` [(1S,2R,5S,10S,11S,14R,15R)-14-[(2R)-6-hydroxy-6-methylheptan-2-yl]-2,15-dimethyltetracyclo[8.7.0.0^{2,7}.0^{11,15}]heptadec-7-en-5-ol]: 320 nM.
Next, `C[C@H](CCCC(C)(C)O)[C@H]1CC[C@@]2(C)C3=C(CC[C@]12C)[C@@]1(C)CCC(=O)C(C)(C)[C@@H]1CC3`: 106 nM; `C[C@H](CCCC(C)(C)O)[C@H]1CC[C@@]2(C)C3=C(CC[C@]12C)[C@@]1(C)CC[C@H](O)C(C)(C)[C@@H]1CC3`: 57 nM; `C[C@H](CCCC(C)(C)O)[C@H]1CC[C@@]2(C)C3=CC[C@H]4C(C)(C)[C@@H](O)CC[C@]4(C)C3=CC[C@]12C`: 64 nM.
